Results as given in patent US20090192095A1 (priority 2008, published 2009).
pEC50: −log10 of the molar value. Where “and” joins values, the source holds several entries; their conditions need not be identical. Equal values may be shown once. Where a name gives a salt, the structure may show the parent alone. Read-outs that look alike come from different tables or passages of the source.

Columns and labels:
[1] = for Simulated gastric fluid (pH 1.1): % remaining after 2 h/37° C. / Simulated intestinal fluid (pH 6.8): % remaining after 2 h/37° C.: simulated gi fluid
[2] = test system: rat colon circular muscle strips; format: cell-based; parameters: unit not given here; settings: rat colonic strips, EFS
[3] = test system: human colon circular muscle strips; format: cell-based; settings: human colonic strips, EFS
acetyl choline esterase = acetyl choline esterase (Homo sapiens, UniProt P22303); experiment: In vitro assessment with a human acetyl choline esterase preparation; format: biochemical
Chain of acetyl choline esterase (P22303 32-614): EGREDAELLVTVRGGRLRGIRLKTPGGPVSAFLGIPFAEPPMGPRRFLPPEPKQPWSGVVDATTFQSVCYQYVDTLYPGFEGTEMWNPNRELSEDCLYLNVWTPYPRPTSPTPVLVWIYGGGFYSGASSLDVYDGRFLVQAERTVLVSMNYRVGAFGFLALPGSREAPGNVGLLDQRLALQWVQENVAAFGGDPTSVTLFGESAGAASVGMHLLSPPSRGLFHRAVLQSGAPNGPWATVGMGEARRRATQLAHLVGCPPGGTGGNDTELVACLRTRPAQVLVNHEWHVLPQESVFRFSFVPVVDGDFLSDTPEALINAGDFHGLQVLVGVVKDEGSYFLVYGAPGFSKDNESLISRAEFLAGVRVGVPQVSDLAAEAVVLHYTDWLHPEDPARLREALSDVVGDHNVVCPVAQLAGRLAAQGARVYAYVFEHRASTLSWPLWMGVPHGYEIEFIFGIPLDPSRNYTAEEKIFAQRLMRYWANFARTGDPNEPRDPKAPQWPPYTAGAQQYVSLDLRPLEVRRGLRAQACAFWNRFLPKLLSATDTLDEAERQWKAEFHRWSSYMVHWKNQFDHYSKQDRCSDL

ferret = settings: for Total number of individual incidences of: Retching / Total number of individual incidences of: Vomiting: individual ferrets, 150 mg/kg oral, naloxone 0.5 mg/kg s.c. pretreatment, observed 2 hours
[4] = Beagle, dog, in vivo, po, 1 mg/kg
[5] = test system: guinea pig small intestine myenteric plexus longitudinal muscle; experiment: tissue or blood; format: cell-based; settings: for pEC50: Cavia porcellus, read-out: EC50 for inhibition of contractility
[6] = test system: gastro-intestinal motility in the rat; experiment: Charcoal propulsion test (gastro-intestinal motility) in the rat; settings: oral; for delay of the passage of the charcoal meal (gut motility): 30 mg/kg dose or equimolar dose of prodrug
[7] = listed as meptazinol valine carbamate
[8] = female, ferret, in vivo, po, 150 mg/kg
[9] = 10 mg/kg, 60 min before charcoal, 30 min after charcoal

## CC(C)[C@@H](NC(=O)OC1=C2OC3C(=O)CCC4[C@H]5CC(CC1)C2[C@@]34CCN5C)C(=O)O (stereo partly drawn) [Hydromorphone valine carbamate, hydromorphone-(S)-valine carbamate trifluoroacetate]
[1]
  Distilled water (pH 5.9): % remaining after 2 h/20° C.: 100%
  Simulated gastric fluid (pH 1.1): % remaining after 2 h/37° C.: 100%
  Simulated intestinal fluid (pH 6.8): % remaining after 2 h/37° C.: 98%

## CCC1(c2cccc(OC(=O)N[C@H](C(=O)O)C(C)C)c2)CCCCN(C)C1 (stereo partly drawn) [Meptazinol valine carbamate, meptazinol-(S)-valine carbamate trifluoroacetate]
[2]; 0.01 μM
  Mean force of contraction ± sd: 104.47
[2]; 0.1 μM
  Mean force of contraction ± sd: 121.87
[2]; 0.5 μM
  Mean force of contraction ± sd: 86.04
[2]; 1.0 μM
  Mean force of contraction ± sd: 75.22
[2]; 10 μM
  Mean force of contraction ± sd: 65.57
[2]; 100 μM
  Mean force of contraction ± sd: 75.17
[3]; 0.01 μM
  Mean force of contraction ± sd: 89.77
[3]; 0.1 μM
  Mean force of contraction ± sd: 83.63
[3]; 0.5 μM
  Mean force of contraction ± sd: 79.00
[3]; 1.0 μM
  Mean force of contraction ± sd: 80.56
[3]; 10 μM
  Mean force of contraction ± sd: 76.92
[3]; 100 μM
  Mean force of contraction ± sd: 79.25
Acetyl choline esterase
  acetyl choline esterase inhibitory action: loss of acetyl choline esterase inhibitory action
[1]
  Distilled water (pH 5.9): % remaining after 2 h/20° C.: 100%
  Simulated gastric fluid (pH 1.1): % remaining after 2 h/37° C.: 100%
  Simulated intestinal fluid (pH 6.8): % remaining after 2 h/37° C.: 99%
ferret; group of five ferrets, comparable molar dose, 2 hours
  animals demonstrating any retching and vomiting: only one
ferret
  Total number of individual incidences of: Retching: 0 (4×) and 2
  Total number of individual incidences of: Vomiting: 0 (4×) and 1
ferret; [7]
  Total number of individual incidences of: Retching: 2
  Total number of individual incidences of: Vomiting: 1

## CCC1(c2cccc(O)c2)CCCCN(C)C1 (stereo not drawn) [Meptazinol]
[4]
  T½: 2.8 h
ferret; [8]
  animals that exhibited retching and emesis: 50%
  episodes of vomiting in animals that responded: 1-17
  retches observed in a 2 hour period in animals that responded: 5-66

## CC(C)C(NC(=O)Oc1ccc2c3c1O[C@H]1C(=O)CC[C@@]4(O)[C@@H](C2)N(C)CC[C@]314)C(=O)O (stereo partly drawn) [Oxymorphone valine carbamate, oxymorphone-(S)-valine carbamate hydrochloride]
[5]
  Fold difference: 15.5
  pEC50: 6.70
[1]
  Distilled water (pH 5.9): % remaining after 2 h/20° C.: 100%
  Simulated gastric fluid (pH 1.1): % remaining after 2 h/37° C.: 100%
  Simulated intestinal fluid (pH 6.8): % remaining after 2 h/37° C.: 97%
[6]; 10 mg/kg
  % change from vehicle-treated animals, Small intestine: −4.9%
  % change from vehicle-treated animals, Total gut length: −3.9%
[6]; [9]
  Group mean distance travelled by charcoal as % of (±sd) Small intestine: 68.5 ± 7.85%
  Group mean distance travelled by charcoal as % of (±sd) Total gut length: 58.9 ± 6.95%
[6]; 30 mg/kg
  % change from vehicle-treated animals, Small intestine: −13.7%
  % change from vehicle-treated animals, Total gut length: −13.1%
[6]
  delay of the passage of the charcoal meal (gut motility): 14%

## CN1CC[C@]23c4c5ccc(O)c4O[C@H]2C(=O)CC[C@@]3(O)[C@H]1C5 [Oxymorphone]
[5]
  pEC50: 7.89
[4]
  T½: 2.2 h
[6]; 1 mg/kg
  % change from vehicle-treated animals, Small intestine: −5.0%
  % change from vehicle-treated animals, Total gut length: −4.5%
[6]; 3 mg/kg
  % change from vehicle-treated animals, Small intestine: −9.5%
  % change from vehicle-treated animals, Total gut length: −9.4%
[6]; 10 mg/kg
  % change from vehicle-treated animals, Small intestine: −24.1%
  % change from vehicle-treated animals, Total gut length: −24.1%
[6]; 30 mg/kg
  % change from vehicle-treated animals, Small intestine: −69.5%
  % change from vehicle-treated animals, Total gut length: −69.8%
[6]
  delay of the passage of the charcoal meal (gut motility): 70%
